Laboratory results from article PMC11783063, “Design, synthesis, and apoptotic antiproliferative action of new benzimidazole/1,2,3-triazole hybrids as EGFR inhibitors” (Frontiers in Chemistry, 2025).

Tests used:
[1] = tested on: MCF-7 (breast cancer cell line); experiment: Antiproliferative assay, MCF-7; type: cell-based, human; conditions: Homo sapiens, MCF7; read-out: Antiproliferative activity IC50 ± SEM, MCF-7
Description: (§1) Refer to Supplementary Appendix A for more information.
(§2) DMSO (0.1%) was used as control.

caspase-3 = experiment: Caspase-3 activation assay in MCF-7 cells; type: cell-based, human; conditions: for Caspase-3 Conc: compound at its IC50 concentration; for Caspase-3 Fold change: vs untreated control
Description: Cells experience apoptosis in reaction to specific signaling cues, resulting in significant modifications. […] They decompose vital cellular components, including nuclear proteins, such as DNA repair enzymes and structural proteins within the cytoskeleton, essential for optimal cellular function.
Supplementary Appendix A provides more details.
Allow all reagents to reach room temperature before use. Gently mix all liquid reagents prior to use. Determine the number of 8-well strips needed for the assay. Insert these in the frame(s) for current use. Add 100 μl of the Standard Diluent Buffer to the zero standard wells. Well(s) reserved for chromogen blank should be left empty. Add 100 μl of standards and controls or diluted samples to the appropriate microtiter wells. The sample dilution chosen should be optimized for each experimental system. Tap gently on the side of plate to mix. Cover wells with plate cover and incubate for 2 hours at room temperature. Thoroughly aspirate or decant solution from wells and discard the liquid, Wash wells 4 times. […] Tap gently on the side of the plate to mix. Cover plate with plate cover and incubate for 1 hour at room temperature. Thoroughly aspirate or decant solution from wells and discard the liquid, Wash wells 4 times. Add 100 μl Anti-Rabbit IgG HRP Working Solution to each well except the chromogen blank(s). Prepare the working dilution as described in Preparing IgG HRP. Cover wells with the plate cover and incubate for 30 minutes at room temperature. Thoroughly aspirate or decant solution from wells and discard the liquid. Wash wells 4 times. Add 100 μl of Stabilized Chromogen to each well. The liquid in the wells will begin to turn blue. Incubate for 30 minutes at room temperature and in the dark. The incubation time for chromogen substrate is often determined by the microtiter plate reader used. […] The O.D. values should be monitored, and the substrate reaction stopped before the O.D. of the positive wells exceeds the limits of the instrument. The O.D. values at 450 nm can only be read after the Stop Solution has been added to each well. […] Add 100 μl of Stop Solution to each well. Tap side of plate gently to mix. The solution in the wells should change from blue to yellow. Read the absorbance of each well at 450 nm having blanked the plate reader against a chromogen blank composed of 100 μl each of Stabilized Chromogen and Stop Solution. Read the plate within 2 hours after adding the Stop Solution. Use a curve fitting software to generate the standard curve. […] Read the concentrations for unknown samples and controls from the standard curve. Multiply value(s) obtained for sample(s) by the appropriate dilution factor to correct for the dilution in step 3.

EGFR = EGFR (Homo sapiens, UniProt P00533); experiment: EGFR-TK inhibitory assay
Description: To record autophosphorylation level, EGFR kinase assay was carried out on the basis of DELFIA/Time-Resolved Fluorometry. […] Each compound (10 µL) was incubated with recombinant enzyme (10 µL, 5 ng for EGFR, 1:80 dilution in 100 mM HEPES) for 10 min at 25 °C, subsequent to the addition of 5X buffer (10 µL, containing 2 mM MnCl2, 100 µM Na3VO4, 20 mM HEPES and 1 mM DTT) and ATP-MgCl2 (20 µL, containing 0.1 mM ATP and 50 mM MgCl2) and incubation for 1h. The negative and positive controls were included in each plate by the incubation of enzyme either with or without ATP-MgCl2. The liquid was removed after incubation and the plates were washed thrice using wash buffer. Europium-tagged antiphosphotyrosine antibody (75 µL, 400 ng) was added to each well followed by incubation of 1h and then washing of the plates using buffer. […] The autophosphorylation percentage inhibition by compounds was calculated using the following equation:

[2] = Cell viability assay (MTT) on MCF-10A normal cells; conditions: human, MCF-10A normal mammary gland epithelial cells
Description: (§3) The medium in which cells were propagated contained Dulbecco's modified Eagle's medium (DMEM)/ Ham's F-12 medium (1:1) supplemented with epidermal growth factor (20 ng/mL), hydrocortisone (500 ng/mL), insulin (10 μg/mL), 2 mM glutamine and 10% foetal calf serum. After every 2-3 days, the cells were passed using trypsin ethylenediamine tetra acetic acid (EDTA). The cells were seeded at a density of 10^4 cells mL^-1 in flat-bottomed culture plates containing 96 wells each. After 24 h, medium was removed from the plates and the compounds in (in 0.1% DMSO) were added (in 200 μL medium to yield a final concentration of 0.1% v/v) to the wells of plates. A single compound was designated with four wells followed by incubation of plates for 96h at 37°C. After incubation, medium was removed completely from the plates followed by addition of MTT (0.4 mg/mL in medium) to each well and subsequent incubation of plates for 3h. MTT (along with the medium) was removed and DMSO (150μL) was added to each well of the culture plates, followed by vortexing and subsequent measurement of absorbance (at 540 nm) using microplate reader.

[3] = tested on: MCF-10A normal human mammary gland epithelial cell line; experiment: Cell viability assay (MTT) on MCF-10A normal cells; conditions: dose of 50 μM
Description: as §3

[4] = tested on: four human cancer cell lines (HT-29, A-549, MCF-7, Panc-1); experiment: Antiproliferative assay, mean over four cancer cell lines (GI50); conditions: Homo sapiens, read-out: Average IC50 (GI50)
Description: To calculate the total nuclear DNA, a fluorescent dye (propidium iodide, PI) is used which can attach to the DNA, thus offering a quick and precise technique. PI cannot pass through the cell membrane and its signal intensity can be considered as directly proportional to quantity of cellular DNA. Cells whose cell membranes are damaged or have changed permeability are counted as dead ones. […] The medium was removed; the compounds were added to the plates at 10 µM concentrations (in 0.1% DMSO) in triplicates, followed by incubation for 48 h. DMSO (0.1%) was used as control. After incubation, medium was removed followed by the addition of PI (25 µl, 50µg/mL in water/medium) to each well of the plates. At -80 °C, the plates were allowed to freeze for 24 h, followed by thawing at 25 °C. A fluorometer (Polar-Star BMG Tech) was used to record the readings at excitation and emission wavelengths of 530 and 620 nm for each well. The percentage cytotoxicity of compounds was calculated using the following formula:

[5] = tested on: HT-29 (colon cancer cell line); experiment: Antiproliferative assay, HT-29; type: cell-based, human; conditions: Homo sapiens, read-out: Antiproliferative activity IC50 ± SEM, HT-29
Description: as §1, §2

[6] = tested on: Panc-1 (pancreatic cancer cell line); experiment: Antiproliferative assay, Panc-1; type: cell-based, human; conditions: Homo sapiens, PANC-1; read-out: Antiproliferative activity IC50 ± SEM, Panc-1
Description: as §1, §2

Chain of EGFR (P00533 669-1210): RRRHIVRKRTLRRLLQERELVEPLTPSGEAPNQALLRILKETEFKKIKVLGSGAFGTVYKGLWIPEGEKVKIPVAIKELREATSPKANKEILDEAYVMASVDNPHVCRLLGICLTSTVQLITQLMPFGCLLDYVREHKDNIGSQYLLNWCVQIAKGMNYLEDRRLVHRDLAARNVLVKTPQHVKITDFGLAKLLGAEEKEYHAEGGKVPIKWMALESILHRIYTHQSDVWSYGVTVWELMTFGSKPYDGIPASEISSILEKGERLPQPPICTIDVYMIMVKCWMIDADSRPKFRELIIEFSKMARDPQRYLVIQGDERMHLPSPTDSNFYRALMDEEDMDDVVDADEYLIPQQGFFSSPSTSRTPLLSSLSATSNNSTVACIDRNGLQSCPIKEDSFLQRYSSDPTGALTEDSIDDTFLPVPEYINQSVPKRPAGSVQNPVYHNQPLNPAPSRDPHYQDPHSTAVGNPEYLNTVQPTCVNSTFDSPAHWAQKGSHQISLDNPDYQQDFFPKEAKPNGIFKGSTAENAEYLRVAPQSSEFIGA

Row | IC50 [1] | IC50 (EGFR) | IC50 [4] | IC50 [5] | IC50 [6] | SMILES | Caspase-3 Conc (caspase-3) | Caspase-3 Fold change (caspase-3) | viability at 4 days, 50 µM [2] | Impact on non-tumor cells MCF-10A [3]
1 | 24 ± 2 nM | 73 ± 4 nM | 25 nM | 25 ± 2 nM | 26 ± 2 nM | O=[N+]([O-])c1cccc(-n2cc(Cn3c(SCc4ccccc4)nc4ccccc43)nn2)c1 [10e] | 778 ± 6 pg/mL | 12 | 90% | no impact
2 | 28 ± 2 nM | 78 ± 5 nM | 29 nM | 30 ± 2 nM | 28 ± 2 nM | NS(=O)(=O)c1ccc(-n2cc(CSc3nc4ccccc4[nH]3)nn2)cc1 [6i, 4-(4-(((1H-benzimidazol-2-yl)thio)methyl)-1H-1,2,3-triazol-1-yl)benzene-sulfonamide] | 590 ± 5 pg/mL | 9 | 90% | no impact
